Assay results published in patent US11214565B2, “Compound, compositions, and methods” (Denali Therapeutics Inc., priority 2015, dated 2022).

Biological target: LRRK2 G2019S enzyme (Homo sapiens (Human), UniProt Q5S007, G2019S)
Assay: LRRK2 G2019S TR-FRET biochemical kinase assay (LRRKtide substrate)
Conditions: Table D-4; 5 nM LRRK2, 134 μM ATP, 60 minute reaction, 23° C.
In short: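 5 nM LRRK2 G2019S preincubated 20 min with LRRKtide and compound (3.162-fold dilution series) in Tris pH 7.5, MgCl2, EGTA, Brij-35, DTT, then reacted 60 min at 23 °C with 134 μM ATP. EDTA-stopped; pLRRKtide antibody detection, TR-FRET read at 340 nm excitation, 520/490–495 nm emission.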

Sequence of LRRK2 G2019S enzyme (Q5S007 whole entry G2019S): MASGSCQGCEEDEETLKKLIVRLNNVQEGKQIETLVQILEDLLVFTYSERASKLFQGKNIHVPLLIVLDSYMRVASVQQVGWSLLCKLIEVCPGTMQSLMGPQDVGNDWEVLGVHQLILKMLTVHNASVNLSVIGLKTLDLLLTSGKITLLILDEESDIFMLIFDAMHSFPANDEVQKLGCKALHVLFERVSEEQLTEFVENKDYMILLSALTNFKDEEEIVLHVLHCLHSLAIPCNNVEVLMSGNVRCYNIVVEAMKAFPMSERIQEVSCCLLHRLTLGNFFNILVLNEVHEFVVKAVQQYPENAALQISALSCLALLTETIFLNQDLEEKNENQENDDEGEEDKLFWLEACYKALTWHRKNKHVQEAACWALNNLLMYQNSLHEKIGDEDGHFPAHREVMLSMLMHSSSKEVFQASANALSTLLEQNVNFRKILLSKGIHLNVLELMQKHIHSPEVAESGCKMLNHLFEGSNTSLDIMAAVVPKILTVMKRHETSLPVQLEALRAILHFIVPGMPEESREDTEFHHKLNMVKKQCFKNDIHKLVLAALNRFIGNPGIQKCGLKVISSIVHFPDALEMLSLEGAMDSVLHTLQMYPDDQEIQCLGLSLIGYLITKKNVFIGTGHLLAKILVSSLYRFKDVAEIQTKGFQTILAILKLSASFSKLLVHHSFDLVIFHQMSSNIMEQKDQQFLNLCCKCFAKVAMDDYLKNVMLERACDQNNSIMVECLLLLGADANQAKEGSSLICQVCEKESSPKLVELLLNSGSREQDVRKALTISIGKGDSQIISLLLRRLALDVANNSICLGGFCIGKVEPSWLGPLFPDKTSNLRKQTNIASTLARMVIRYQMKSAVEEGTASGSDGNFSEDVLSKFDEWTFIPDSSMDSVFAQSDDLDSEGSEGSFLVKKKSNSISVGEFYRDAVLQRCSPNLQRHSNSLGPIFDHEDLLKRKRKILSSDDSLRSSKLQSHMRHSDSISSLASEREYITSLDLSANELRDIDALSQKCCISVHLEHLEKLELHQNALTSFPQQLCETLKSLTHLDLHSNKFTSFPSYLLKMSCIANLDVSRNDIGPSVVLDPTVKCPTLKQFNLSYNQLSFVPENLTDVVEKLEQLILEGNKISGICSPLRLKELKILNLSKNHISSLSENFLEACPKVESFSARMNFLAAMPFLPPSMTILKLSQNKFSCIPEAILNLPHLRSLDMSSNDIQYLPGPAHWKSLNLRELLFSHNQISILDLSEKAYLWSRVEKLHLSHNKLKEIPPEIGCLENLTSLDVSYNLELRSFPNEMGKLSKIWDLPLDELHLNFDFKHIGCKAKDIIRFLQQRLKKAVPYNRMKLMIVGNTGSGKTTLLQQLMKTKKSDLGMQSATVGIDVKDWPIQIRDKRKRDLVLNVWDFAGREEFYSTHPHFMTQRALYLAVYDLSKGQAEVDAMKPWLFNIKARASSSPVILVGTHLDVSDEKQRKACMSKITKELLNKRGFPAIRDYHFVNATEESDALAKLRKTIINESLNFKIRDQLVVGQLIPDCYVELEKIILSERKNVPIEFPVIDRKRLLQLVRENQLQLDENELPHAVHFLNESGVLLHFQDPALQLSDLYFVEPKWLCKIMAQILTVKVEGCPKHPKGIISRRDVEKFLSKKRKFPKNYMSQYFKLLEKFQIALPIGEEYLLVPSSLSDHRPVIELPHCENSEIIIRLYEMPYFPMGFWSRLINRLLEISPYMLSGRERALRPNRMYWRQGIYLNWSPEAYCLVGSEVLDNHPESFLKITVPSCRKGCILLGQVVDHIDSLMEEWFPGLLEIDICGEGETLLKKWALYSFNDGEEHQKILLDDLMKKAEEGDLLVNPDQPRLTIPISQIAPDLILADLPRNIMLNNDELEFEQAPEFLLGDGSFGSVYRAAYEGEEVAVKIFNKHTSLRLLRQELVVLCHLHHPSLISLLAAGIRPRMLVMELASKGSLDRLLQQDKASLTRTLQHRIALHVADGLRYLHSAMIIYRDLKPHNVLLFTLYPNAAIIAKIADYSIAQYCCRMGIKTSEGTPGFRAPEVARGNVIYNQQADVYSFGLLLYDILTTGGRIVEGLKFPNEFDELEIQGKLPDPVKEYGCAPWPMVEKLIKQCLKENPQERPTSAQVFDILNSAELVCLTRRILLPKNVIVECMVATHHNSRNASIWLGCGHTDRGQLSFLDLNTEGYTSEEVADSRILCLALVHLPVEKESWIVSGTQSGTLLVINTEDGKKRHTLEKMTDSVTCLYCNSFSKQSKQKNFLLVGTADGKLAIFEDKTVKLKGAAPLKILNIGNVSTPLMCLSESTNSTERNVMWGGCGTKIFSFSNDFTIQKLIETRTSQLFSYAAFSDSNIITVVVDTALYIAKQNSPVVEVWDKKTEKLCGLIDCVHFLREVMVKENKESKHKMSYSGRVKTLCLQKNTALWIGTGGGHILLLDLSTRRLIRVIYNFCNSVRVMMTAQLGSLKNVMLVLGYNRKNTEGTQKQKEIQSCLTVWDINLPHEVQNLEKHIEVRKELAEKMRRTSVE

Row | IC50 [nM] | SMILES
1 | < 30 | CNc1nc(Nc2cn([C@H]3C[C@H](CC#N)C3)nc2C)ncc1C(F)(F)F [Compound D-30, trans-2-[3-[4-[[5-(difluoromethyl-fluoranyl)-4-(methylamino)pyrimidin-2-yl]amino]-3-methyl-pyrazol-1-yl]cyclobutyl]acetonitrile]
2 | < 30 | CNc1nc(Nc2cnn([C@H]3C[C@H](COC(F)F)C3)c2C)ncc1C(F)(F)F [Compound D-31, trans-N2-[1-[3-(difluoromethoxymethyl)cyclobutyl]-5-methyl-pyrazol-4-yl]-5-(difluoromethyl-fluoranyl)-N4-methyl-pyrimidine-2,4-diamine]
3 | < 30 | CNc1nc(Nc2cn([C@H]3C[C@H](COC(F)F)C3)nc2C)ncc1C(F)(F)F [Compound D-32, trans-N2-[1-[3-(difluoromethoxymethyl)cyclobutyl]-3-methyl-pyrazol-4-yl]-5-(difluoromethyl-fluoranyl)-N4-methyl-pyrimidine-2,4-diamine]
4 | < 30 | CNc1nc(Nc2cnn(CC3(CC#N)CC3)c2Cl)ncc1C(F)(F)F [Compound D-33, 2-(1-((5-chloro-4-((4-(methylamino)-5-(trifluoromethyl)pyrimidin-2-yl)amino)-1H-pyrazol-1-yl)methyl)cyclopropyl)acetonitrile]
5 | < 30 | CNc1nc(Nc2cn(C3CCCn4ccnc43)nc2C)ncc1C(F)(F)F [Compound D-34, N^4-methyl-N^2-(3-methyl-1-(5,6,7,8-tetrahydroimidazo[1,2-a]pyridin-8-yl)-1H-pyrazol-4-yl)-5-(trifluoromethyl)pyrimidine-2,4-diamine]
6 | < 30 | CNc1nc(Nc2cn(C3CCc4c(C)noc43)nc2C)ncc1C(F)(F)F [Compound D-35, N^4-methyl-N^2-(3-methyl-1-(3-methyl-5,6-dihydro-4H-cyclopenta[d]isoxazol-6-yl)-1H-pyrazol-4-yl)-5-(trifluoromethyl)pyrimidine-2,4-diamine]
7 | > 60 | CNc1nc(Nc2cn(C3CCn4nccc43)nc2C)ncc1C(F)(F)F [Compound D-36, N^2-(1-(5,6-dihydro-4H-pyrrolo[1,2-b]pyrazol-4-yl)-3-methyl-1H-pyrazol-4-yl)-N^4-methyl-5-(trifluoromethyl)pyrimidine-2,4-diamine]
8 | 30 to 60 | CNc1nc(Nc2cn(C3CCc4c3cnn4C)nc2C)ncc1C(F)(F)F [Compound D-37, N^4-methyl-N^2-(3-methyl-1-(1-methyl-1,4,5,6-tetrahydrocyclopenta[c]pyrazol-4-yl)-1H-pyrazol-4-yl)-5-(trifluoromethyl)pyrimidine-2,4-diamine]
9 | < 30 | CCSc1nc(Nc2cn(C(C)(C)C#N)nc2C)ncc1Cl [Compound D-44, 2-[4-[(5-chloro-4-ethylsulfanyl-pyrimidin-2-yl)amino]-3-methyl-pyrazol-1-yl]-2-methyl-propanenitrile]
10 | < 30 | CCSc1nc(Nc2cn(C(C)(C)C#N)nc2C)ncc1C(F)(F)F [Compound D-45, 2-[4-[[4-ethylsulfanyl-5-(trifluoromethyl)pyrimidin-2-yl]amino]-3-methyl-pyrazol-1-yl]-2-methyl-propanenitrile]
11 | 30 to 60 | CSc1nc(Nc2cn(C(C)(C)C#N)nc2C)ncc1C(F)(F)F [Compound D-46, 2-methyl-2-[3-methyl-4-[[4-methylsulfanyl-5-(trifluoromethyl)pyrimidin-2-yl]amino]pyrazol-1-yl]propanenitrile]
12 | > 60 | CCSc1nc(Nc2cn(C(C)(C)C#N)nc2C)ncc1C#N [Compound D-47, 2-[[1-(1-cyano-1-methyl-ethyl)-3-methyl-pyrazol-4-yl]amino]-4-ethylsulfanyl-pyrimidine-5-carbonitrile]
13 | < 30 | CNc1nc(Nc2cnn(C(C)COC(F)F)c2C)ncc1C(F)(F)F [Compound D-48, N2-[1-[2-(difluoromethoxy)-1-methyl-ethyl]-5-methyl-pyrazol-4-yl]-5-(difluoromethyl-fluoranyl)-N4-methyl-pyrimidine-2,4-diamine]
14 | < 30 | CNc1nc(Nc2cnn([C@H]3C[C@@H](n4cccn4)C3)c2C)ncc1C(F)(F)F [Compound D-49, cis-N4-methyl-N2-[5-methyl-1-(3-pyrazol-1-ylcyclobutyl)pyrazol-4-yl]-5-(trifluoromethyl)pyrimidine-2,4-diamine]
15 | < 30 | CNc1nc(Nc2cnn([C@H]3C[C@@H](S(C)(=O)=O)C3)c2C)ncc1C(F)(F)F [Compound D-50, cis-N4-methyl-N2-[5-methyl-1-(3-methylsulfonylcyclobutyl)pyrazol-4-yl]-5-(trifluoromethyl)pyrimidine-2,4-diamine]
16 | < 30 | CNc1nc(Nc2cnn(C3CCc4c3cnn4C)c2C)ncc1C(F)(F)F [Compound D-56]
17 | < 30 | CCNc1nc(Nc2cn(C3CCc4ncsc43)nc2C)ncc1C(F)(F)F [Compound D-57]
18 | < 30 | CCNc1nc(Nc2cnn([C@H]3C[C@H](n4nccn4)C3)c2C)ncc1C(F)(F)F [Compound D-58]
19 | < 30 | CCNc1nc(Nc2cnn([C@H]3C[C@@H](n4cncn4)C3)c2C)ncc1C(F)(F)F [Compound D-59]

Row | IC50 [nM] | SMILES
20 | < 30 | CCNc1nc(Nc2cnn(C3Cc4nccn4C3)c2C)ncc1C(F)(F)F [Compound D-60]
21 | < 30 | CCNc1nc(Nc2cnn([C@H]3C[C@H](n4ncnc4C(F)(F)F)C3)c2C)ncc1C(F)(F)F [Compound D-61]
22 | > 60 | CCNc1nc(Nc2cn(C3CCn4ccnc43)nc2Cl)ncc1C(F)(F)F [Compound D-62]
23 | < 30 | Cc1c(Nc2ncc(C(F)(F)F)c(NCC(F)F)n2)cnn1[C@H]1C[C@@H](n2cccn2)C1 [Compound D-63]
24 | < 30 | CNc1nc(Nc2cnn([C@H]3C[C@H](n4cc(F)cn4)C3)c2C)ncc1C(F)(F)F [Compound D-64]
25 | < 30 | CCNc1nc(Nc2cnn(C3CCn4nccc43)c2C)ncc1C(F)(F)F [Compound D-65]
26 | < 30 | CCNc1nc(Nc2cn([C@H]3C[C@H](c4cocn4)C3)nc2C)ncc1C(F)(F)F [Compound D-66]
27 | > 60 | CNc1nc(Nc2cn(C3CCn4cncc43)nc2C)ncc1C(F)(F)F [Compound D-67]
28 | > 60 | CCOc1nc(Nc2cn(C3CCn4ccnc43)nc2C)ncc1C(F)(F)F [Compound D-68]
29 | < 30 | CNc1nc(Nc2cn(C3CCC(n4ccnn4)C3)nc2C)ncc1C(F)(F)F [Compound D-69]
30 | < 30 | CNc1nc(Nc2cnn(C(C)COC(F)F)c2C)ncc1C(F)(F)F [Compound D-70]
31 | < 30 | CNc1nc(Nc2cnn([C@H]3C[C@H](n4cccn4)C3)c2C)ncc1C(F)(F)F [Compound D-71]
32 | > 60 | CNc1nc(Nc2cn(C3(c4ncnn4C)CCC3)nc2C)ncc1C(F)(F)F [Compound D-72]
33 | < 30 | CCNc1nc(Nc2cnn([C@H]3C[C@H](n4ccnn4)C3)c2C)ncc1C(F)(F)F [Compound D-73]
34 | < 30 | CCNc1nc(Nc2cn(C3Cc4nccn4C3)nc2C)ncc1C(F)(F)F [Compound D-74]
35 | < 30 | Cc1c(Nc2ncc(C(F)(F)F)c(NCC(F)F)n2)cnn1[C@H]1C[C@H](n2nccn2)C1 [Compound D-75]
36 | < 30 | CCNC(=O)C(F)(F)n1cc(Nc2ncc(C(F)(F)F)c(NCC)n2)c(C)n1 [Compound D-76]
37 | < 30 | CNc1nc(Nc2cnn([C@H]3C[C@@H](n4nccn4)C3)c2C)ncc1C(F)(F)F [Compound D-77]
38 | > 60 | CCNc1nc(Nc2cnn(C3CCCn4ccnc43)c2C)ncc1C(F)(F)F [Compound D-78]
